Test results reported in US20250326739A1, “CD38 MODULATORS AND USES THEREOF” (Aeovian Pharmaceuticals, Inc., priority 2022, published 2025).
pIC50: −log10 of the molar value. Where a name gives a salt, the structure may show the parent alone.

Tests used:
[1] = target: human CD38 (Homo sapiens (Human), UniProt P28907); experiment: NAD+ cyclase activity assay with human recombinant CD38 protein; type: biochemical; settings: 1.9 nM human CD38, 15.8 μM e-NAD substrate, fluorescence read-out
Procedure: (§1) Example 5: NAD^+ Cydase Activity Assay with Human or Mouse Recombinant CD38 Protein
(§2) The following assay was used to determine the ability of compounds of the invention to inhibit the hydrolysis of NAD^+ by the human or mouse enzyme, CD38.
(§3) Reaction buffer: 40 mM HEPES/NaOH pH 7.5, 250 mM sucrose, 0.01% Tween
(§4) Final concentrations: 0.6 nM mouse CD38 (4947-AC, Bio-Techne GmbH) 1.9 nM human CD38 (AVI2404, Bio-Techne GmbH)
(§5) Substrate: 15.8 μM Nicotinamide 1,N6-ethenoadenine dinucleotide (E-NAD)
(§6) Read-out: Fluorescence intensity (extinction 300 nm/emission 410 nm)
(§7) Required reaction buffer, required CD38 concentration in reaction buffer and required e-NAD concentration in reaction buffer were prepared. Thereafter, 8 μL of CD38 in reaction buffer were added to High Control and compound concentration wells in 384 well plate (Corning #4514, 384 well, nonbinding surface, low volume, round bottom) and 8 μL of reaction buffer to Low Control. Compound dilutions were transferred via pintool technology that transfers 42.5 nL compound dilutions (12-point dose-response with factor three dilutions in 100% DMSO) well-to-well. Plate was subsequently shaken for 15 s at 1450 rpm and sealed for incubation for 30 min at room temperature. Thereafter, 2 μL of e-NAD in reaction buffer were added with Integra Voyager. After shaking for 15 s at 1450 rpm, plate was sealed, and assay signal was measured continuously with PHERAstar® fluorescence intensity module (extinction 300 nm/emission 410 nm).
(§8) Dose-response curves were constructed using twelve-point factor three dilutions in triplicates per plate. High control (full enzyme activity) was set to assay signal of CD38 and e-NAD in presence of vehicle (DMSO) and Low control (full enzyme inhibition) was set to assay signal of e-NAD and vehicle (DMSO) in absence of CD38. For data analysis, fluorescent signal of traces corresponding to each compound concentration and High and Low control was monitored over time. Each run, High Control (full enzyme activity) was fitted to Linear equation via GraphPad Prism to determine CD38 activity from the slope and determine the time interval of linear phase of reaction to account for minor fluctuations. Thereafter, slopes of all compound concentrations were determined via fitting to same linear equation (GraphPad Prism) over the same time interval as determined for High control. Percentage inhibition was calculated via normalization to High and Low Control via the equation: %−inhibition=100*(1−((Sample−Low control)/(High control−Low control))) Half maximal inhibitory concentration (IC50) values are yielded from the inflection point of the corresponding curve by fitting of resulting percentage inhibition values to standard equation (4 Parameter Logistic Model or Sigmoidal Dose-Response Model) via Excel Fit. Unless otherwise stated, fitting of curves was fixed to 100%-inhibition and unlocked for 0%-inhibition.

[2] = target: mouse CD38 (Mus musculus (Mouse), UniProt P56528); experiment: NAD+ cyclase activity assay with mouse recombinant CD38 protein; type: biochemical; settings: 0.6 nM mouse CD38, 15.8 μM e-NAD substrate, fluorescence read-out
Procedure: as §1, §2, §3, §4, §5, §6, §7, §8

Chain of mouse CD38 (P56528 whole entry): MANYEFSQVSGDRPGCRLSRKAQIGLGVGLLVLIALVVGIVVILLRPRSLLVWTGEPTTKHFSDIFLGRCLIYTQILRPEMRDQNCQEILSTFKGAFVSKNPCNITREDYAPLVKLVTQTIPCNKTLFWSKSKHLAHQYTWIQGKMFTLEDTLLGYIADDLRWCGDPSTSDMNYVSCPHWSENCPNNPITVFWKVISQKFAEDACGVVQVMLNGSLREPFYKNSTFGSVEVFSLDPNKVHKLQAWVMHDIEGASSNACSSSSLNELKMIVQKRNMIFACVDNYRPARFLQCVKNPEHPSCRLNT
Chain of human CD38 (P28907 whole entry): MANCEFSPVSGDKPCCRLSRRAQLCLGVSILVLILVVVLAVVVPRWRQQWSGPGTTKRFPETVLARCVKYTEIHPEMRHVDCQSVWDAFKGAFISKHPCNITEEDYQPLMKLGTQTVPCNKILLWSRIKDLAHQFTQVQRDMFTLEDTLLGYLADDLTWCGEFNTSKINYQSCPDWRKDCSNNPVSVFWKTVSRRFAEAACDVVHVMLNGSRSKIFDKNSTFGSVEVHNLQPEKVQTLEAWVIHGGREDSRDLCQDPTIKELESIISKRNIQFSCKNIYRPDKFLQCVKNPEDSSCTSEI

Row | Structure (SMILES) | pIC50 [1] | pIC50 [2]
1 | Cc1cc(C(=O)N[C@@H]2CCS(=O)(=O)C2)nc(-n2ccnc2)n1 [Compound 68A, (R)—N-(1,1-Dioxidotetrahydrothiophen-3-yl)-2-(1H-imidazol-1-yl)-6-methylpyrimidine-4-carboxamide] | > 7.52 | > 9.00
2 | Cc1cc(C(=O)N[C@@H]2CCCN(C)C2)nc(-n2ccnc2)c1 [Compound 59A, (R)-6-(1H-Imidazol-1-yl)-4-methyl-N-(1-methylpiperidin-3-yl)picolinamide] | < 6.00 | 7.00 to 8.00
3 | Cc1cc(C(=O)N[C@@H]2CCCNC2)nc(-n2ccnc2)c1 [Compound 51A, (R)-6-(1H-Imidazol-1-yl)-4-methyl-N-(piperidin-3-yl)picolinamide dihydrochloride] | < 6.00 | < 7.00
4 | Cc1cc(C(=O)NC2CCOC(C)(C)C2)nc(-n2ccnc2)c1 (stereo not drawn) [Compound 24A, N-(2,2-Dimethyltetrahydro-2H-pyran-4-yl)-6-(1H-imidazol-1-yl)-4-methylpicolinamide] | 6.00 to 7.00 | 8.00 to 9.00
5 | Cc1cc(C(=O)NC2CCCS(=O)(=O)C2)nc(-n2ccnc2)c1 (stereo not drawn) [Compound 36A, N-(1,1-Dioxidotetrahydro-2H-thiopyran-3-yl)-6-(1H-imidazol-1-yl)-4-methylpicolinamide] | 6.00 to 7.00 | 8.00 to 9.00
6 | Cc1cc(C(=O)NC2CCN(S(=O)(=O)C3CC3)CC2)nc(-n2ccnc2)c1 [Compound 3A, N-(1-(cyclopropylsulfonyl)piperidin-4-yl)-6-(1H-imidazol-1-yl)-4-methylpicolinamide] | > 7.52 | 8.00 to 9.00
7 | Cc1cc(C(=O)N[C@H]2CCNC2)nc(-n2ccnc2)c1 [Compound 41A, (S)-6-(1H-Imidazol-1-yl)-4-methyl-N-(pyrrolidin-3-yl)picolinamide hydrochloride] | < 6.00 | < 7.00
8 | Cc1cc(C(=O)N[C@@H]2COCCC2(F)F)nc(-n2ccnc2)c1 [Compound 71A, (R)—N-(4,4-Difluorotetrahydro-2H-pyran-3-yl)-6-(1H-imidazol-1-yl)-4-methylpicolinamide] | 7.00 to 7.52 | > 9.00
9 | Cc1cc(C(=O)N[C@H]2COCCC2(F)F)nc(-n2ccnc2)c1 [Compound 70A, (S)—N-(4,4-Difluorotetrahydro-2H-pyran-3-yl)-6-(1H-imidazol-1-yl)-4-methylpicolinamide] | 7.00 to 7.52 | 8.00 to 9.00
10 | O=C(N[C@@H]1CCS(=O)(=O)C1)c1cc(C(F)(F)F)nc(-n2ccnc2)n1 [Compound 77A, (R)—N-(1,1-Dioxidotetrahydrothiophen-3-yl)-2-(1H-imidazol-1-yl)-6-(trifluoromethyl)pyrimidine-4-carboxamide] | 7.00 to 7.52 | 8.00 to 9.00
11 | Cc1cc(C(=O)N[C@@H]2CCCOC2)nc(-n2ccnc2)n1 [Compound 69A, (R)-2-(1H-Imidazol-1-yl)-6-methyl-N-(tetrahydro-2H-pyran-3-yl)pyrimidine-4-carboxamide] | > 7.52 | > 9.00
12 | CCS(=O)(=O)N1CCC(NC(=O)c2cc(C)cc(-n3ccnc3)n2)CC1 [Compound 2A, N-(1-(Ethylsulfonyl)piperidin-4-yl)-6-(1H-imidazol-1-yl)-4-methylpicolinamide] | > 7.52 | 8.00 to 9.00
13 | Cc1cc(C(=O)NC2CN(S(C)(=O)=O)C2)nc(-n2ccnc2)c1 [Compound 7A, 6-(1H-Imidazol-1-yl)-4-methyl-N-(1-(methylsulfonyl)azetidin-3-yl)picolinamide] | 7.00 to 7.52 | 8.00 to 9.00
14 | Cc1cc(C(=O)NC2CCN(S(C)(=O)=O)CC2)nc(-n2ccnc2)n1 [Compound 61A, 2-(1H-Imidazol-1-yl)-6-methyl-N-(1-(methylsulfonyl)piperidin-4-yl)pyrimidine-4-carboxamide] | > 7.52 | > 9.00
15 | Cc1cc(C(=O)NC2CCC(F)(F)CC2)nc(-n2ccnc2)c1 [Compound 8A, N-(4,4-Difluorocyclohexyl)-6-(1H-imidazol-1-yl)-4-methylpicolinamide] | > 7.52 | 8.00 to 9.00
16 | Cc1ccc(-n2ccnc2)nc1C(=O)N[C@@H]1CCCOC1 [Compound 81A, (R)-6-(1H-Imidazol-1-yl)-3-methyl-N-(tetrahydro-2H-pyran-3-yl)picolinamide] | 6.00 to 7.00 | 7.00 to 8.00
17 | O=C(N[C@@H]1CCS(=O)(=O)C1)c1cc(C(F)(F)F)cc(-n2ccnc2)n1 [Compound 78A, (R)—N-(1,1-Dioxidotetrahydrothiophen-3-yl)-6-(1H-imidazol-1-yl)-4-(trifluoromethyl)picolinamide] | > 7.52 | 8.00 to 9.00
18 | Cc1cc(C(=O)N[C@@H]2CCCS(=O)(=O)C2)nc(-n2ccnc2)c1 [Compound 57A, (R)—N-(1,1-Dioxidotetrahydro-2H-thiopyran-3-yl)-6-(1H-imidazol-1-yl)-4-methylpicolinamide] | 7.00 to 7.52 | 8.00 to 9.00
19 | Cc1cc(C(=O)NC2C3COCC32)nc(-n2ccnc2)c1 (stereo not drawn) [Compound 31A, N-(3-Oxabicyclo[3.1.0]hexan-6-yl)-6-(1H-imidazol-1-yl)-4-methylpicolinamide] | 7.00 to 7.52 | 8.00 to 9.00
20 | Cc1cc(C(=O)NC2CCN(C(=O)CN3CCOCC3)CC2)nc(-n2ccnc2)c1 [Compound 19A, 6-(1H-Imidazol-1-yl)-4-methyl-N-(1-(2-morpholinoacetyl)piperidin-4-yl)picolinamide] | 7.00 to 7.52 | 8.00 to 9.00
21 | Cc1cc(C(=O)N[C@H]2CCCNC2=O)nc(-n2ccnc2)c1 [Compound 60A, (S)-6-(1H-Imidazol-1-yl)-4-methyl-N-(2-oxopiperidin-3-yl)picolinamide] | 6.00 to 7.00 | 8.00 to 9.00
22 | Cc1cc(C(=O)N[C@H]2CCN(S(C)(=O)=O)C2)nc(-n2ccnc2)c1 [Compound 46A, (S)-6-(1H-imidazol-1-yl)-4-methyl-N-(1-(methylsulfonyl)pyrrolidin-3-yl)picolinamide] | 6.00 to 7.00 | 8.00 to 9.00
23 | COCCC(=O)N1CCC(NC(=O)c2cc(C)cc(-n3ccnc3)n2)CC1 [Compound 20A, 6-(1H-Imidazol-1-yl)-N-(1-(3-methoxypropanoyl)piperidin-4-yl)-4-methylpicolinamide] | 7.00 to 7.52 | 8.00 to 9.00
24 | Cc1cc(C(=O)N[C@H]2CCCN(S(C)(=O)=O)C2)nc(-n2ccnc2)c1 [Compound 50A, (S)-6-(1H-Imidazol-1-yl)-4-methyl-N-(1-(methylsulfonyl)piperidin-3-yl)picolinamide] | 6.00 to 7.00 | 8.00 to 9.00
25 | Cc1cc(C(=O)NC2CCC(F)(F)C2)nc(-n2ccnc2)c1 (stereo not drawn) [Compound 35A, N-(3,3-Difluorocyclopentyl)-6-(1H-imidazol-1-yl)-4-methylpicolinamide] | > 7.52 | 8.00 to 9.00
26 | Cc1cc(C(=O)NC2CCN(S(=O)(=O)N(C)C)CC2)nc(-n2ccnc2)c1 [Compound 18A, N-(1-(N,N-Dimethylsulfamoyl)piperidin-4-yl)-6-(1H-imidazol-1-yl)-4-methylpicolinamide] | > 7.52 | 8.00 to 9.00
27 | Cc1cc(C(=O)NC2COCCC2(F)F)nc(-n2ccnc2)c1 (stereo not drawn) [Compound 25A, N-(4,4-Difluorotetrahydro-2H-pyran-3-yl)-6-(1H-imidazol-1-yl)-4-methylpicolinamide] | 7.00 to 7.52 | 8.00 to 9.00
